# Assay results from publication PMC8874615 (Viruses, 2022).
# Where two headings read alike, the source gives them in different places.
# Experiments:
# TBEV, strain Hypr [1] = tested on: TBEV, strain Hypr
# TBEV, strain Hypr [2] = test: microbe, parasite or virus in culture; conditions: Tick-borne encephalitis virus, Vero
# [3] = Cytotoxicity assay (Cell Counting Kit-8) in PS cells; conditions: pig, porcine kidney stable (PS) cells
# [4] = Cytotoxicity assay (Cell Counting Kit-8) in Vero cells; conditions: African green monkey
# [5] = Cytotoxicity assay (Cell Counting Kit-8) in HBCA cells; conditions: human, human brain cortical astrocytes (HBCA)
# [6] = Cytotoxicity assay (Cell Counting Kit-8) in Huh-7 cells; conditions: human, Huh-7 hepatocarcinoma cells
# [7] = Cytotoxicity assay (Cell Counting Kit-8) in UKF-NB-4 cells; conditions: human, UKF-NB-4 neuroblastoma cells
# [8] = tested on: endosomal acidification in Vero cells; test: Analysis of endosomal acidification with acridine orange; type: cell-based, African Green Monkey; conditions: 20 min
# ZIKV strain Paraiba_01 = test: Mechanistic plaque number assay, ZIKV in Vero cells; type: cell-based, Zika virus; conditions: diphyllin 1 100 µM, bafilomycin A1 100 nM
# HSV-1 strain MacIntyre = test: Mechanistic plaque number assay, HSV-1 in Vero cells; type: cell-based, herpes simplex virus type 1; conditions: diphyllin 1 100 µM, bafilomycin A1 100 nM
# [9] = Light sensitivity of the prepared sample; type: physicochemical; conditions: solid sample; surface coloration, detrimental to antivirus activities
# WNV, strain Eg-101 [10] = tested on: WNV, strain Eg-101
# ZIKV, strain Paraiba_01 [11] = tested on: ZIKV, strain Paraiba_01
# RVFV, strain H13/96 [12] = tested on: RVFV, strain H13/96
# HSV-1, strain MacIntyre [13] = tested on: HSV-1, strain MacIntyre
# RABV, strain CVS-11 [14] = tested on: RABV, strain CVS-11
# [15] = tested on: Mardin-Darby canine kidney cells (MDCK); conditions: cited from earlier work
# [16] = tested on: human lung carcinoma cells (A549); conditions: cited from earlier work
# [17] = tested on: feline macrophage-like cells (fcwf-4); conditions: fcwf-4 cells; cited from earlier work
# [18] = tested on: rabbit lung cells (RL-33); conditions: RL-33 cells; cited from earlier work
# WNV, strain Eg-101 [19] = test: microbe, parasite or virus in culture; conditions: West Nile virus, Vero
# ZIKV, strain Paraiba_01 [20] = test: microbe, parasite or virus in culture; conditions: Zika virus, Vero
# RVFV, strain H13/96 [21] = test: microbe, parasite or virus in culture; conditions: Rift Valley fever virus, Vero
# HSV-1, strain MacIntyre [22] = test: microbe, parasite or virus in culture; conditions: Human alphaherpesvirus 1, Vero
# RABV, strain CVS-11 [23] = test: microbe, parasite or virus in culture; conditions: Lyssavirus rabies, BHK-21, 72 h
# [24] = Cytotoxicity assay (Cell Counting Kit-8) in BHK-21 cells; conditions: hamster, BHK-21 cells (baby hamster kidney)
# [25] = 3 h p.i. treatment then washing, plaques counted at 120 h
# [26] = compound kept for the whole 120 h p.i.
# [27] = 3 h p.i. treatment then washing, plaques counted at 72 h
# [28] = compound kept for the whole 72 h p.i.
SMILES,"SI (CC50/EC50) (TBEV, strain Hypr [1])","EC50 (TBEV, strain Hypr [2]) [µM]",CC50 at 48 h [3] [µM],CC50 at 48 h [4] [µM],CC50 at 72 h [4] [µM],CC50 at 144 h [4] [µM],CC50 at 48 h [5] [µM],CC50 at 48 h [6] [µM],CC50 at 48 h [7] [µM],susceptibility of ZIKV (plaque number) (ZIKV strain Paraiba_01; [25]),susceptibility of ZIKV (plaque number) (ZIKV strain Paraiba_01; [26]),susceptibility of HSV-1 (plaque number) (HSV-1 strain MacIntyre; [27]),susceptibility of HSV-1 (plaque number) (HSV-1 strain MacIntyre; [28]),further results
"COc1cc2c(O[C@@H]3O[C@H](CO)[C@@H](O)[C@H](O)[C@H]3O)c3c(c(-c4ccc5c(c4)OCO5)c2cc1OC)C(=O)OC3 [Cleistanthin B 8, diphyllin-4-β-D-glucopyranoside, reference compound]",>18.08,5.53,78.9,> 100,> 100,80.7,2.08,3.96,6.17,–,–,–,–,–
"COc1cc2c(O)c3c(c(-c4ccc5c(c4)OCO5)c2cc1OC)C(=O)OC3 [Diphyllin 1, 9-(3‣,4‣-methylenedioxyphenyl)-4-hydroxy-6,7-dimethoxynaphtho[2,3-c]furan-1(3H)-one]",>117.64,0.85,92.4,> 100,> 100,18.2,3.39,1.89,11.1,susceptible,susceptible,not susceptible,highly susceptible,"red fluorescence intensity of acidic endosomes (acridine orange) ([8]; 100 µM, versus DMSO control): much reduced; light sensitivity [9]: rather light-sensitive; SI (CC50/EC50) (WNV, strain Eg-101 [10]): >128.20; SI (CC50/EC50) (ZIKV, strain Paraiba_01 [11]): >185.19; SI (CC50/EC50) (RVFV, strain H13/96 [12]): >217.39; SI (CC50/EC50) (HSV-1, strain MacIntyre [13]): >169.49; concentration at which complete HSV-1 suppression starts (HSV-1, strain MacIntyre [13]): ≥ 2.5 µM; SI (CC50/EC50) (RABV, strain CVS-11 [14]): >15.80; drop in RABV RNA copies/µL compared with RABV-infected control cells (RABV, strain CVS-11 [14]): 10^2; CC50 [15]: 3.48 µM; CC50 [16]: 24 µM; CC50 [17]: 5.99 µM; CC50 [18]: 63 µg/mL; EC50 (TBEV, strain Hypr [2]; 48 h): 1.04 µM; EC50 (WNV, strain Eg-101 [19]): 0.78 µM; EC50 (ZIKV, strain Paraiba_01 [20]): 0.54 µM; EC50 (RVFV, strain H13/96 [21]): 0.46 µM; EC50 (HSV-1, strain MacIntyre [22]): 0.59 µM; EC50 (RABV, strain CVS-11 [23]): 6.33 µM; CC50 at 72 h [24]: > 100 µM"
"CO/C1=C\C(C)=C\[C@@H](C)[C@@H](O)[C@@H](C)C/C(C)=C/C=C/[C@H](OC)[C@@H]([C@@H](C)[C@@H](O)[C@H](C)[C@@]2(O)C[C@@H](O)[C@H](C)[C@@H](C(C)C)O2)OC1=O [bafilomycin A1, reference compound]",–,–,–,–,–,–,–,–,–,susceptible,susceptible,not susceptible,not susceptible,"red fluorescence intensity of acidic endosomes (acridine orange) ([8]; 100 nM, positive control): all the more obvious; effect on HSV-1 virus titers (HSV-1, strain MacIntyre [13]): no effect; EC50 (ZIKV, strain Paraiba_01 [20]; 48 h): 0.00244 µM; EC50 (HSV-1, strain MacIntyre [22]; 48 h): > 0.1 µM; viability at 48 h, 0.15 µM [4]: ~80%"
"COc1cc2c(O)c3c(c(-c4ccc5c(c4)OCO5)c2cc1OC)C(=O)OC3 [commercial product, diphyllin]",–,–,–,–,–,–,–,–,–,–,–,–,–,"EC50 (TBEV, strain Hypr [1]): 1.24 µM"
